{"source": "patent US20200069777A1", "about": "“ANTIMICROBIAL COMPOSITIONS AND FORMULATIONS” (Matoke Holdings Limited, priority 2016, published 2020)", "origin": "cited, not measured here", "conditions": "20° C. and 1 atm", "data": [{"smiles": "O=C[C@H](O)[C@@H](O)[C@H](O)[C@H](O)CO", "note": "[Glucose]", "values": [{"measurement": "solubility", "value": 90, "unit": "g/100 g water"}]}]}
